What was measured:
SUM-159PT cells [1] = assay: Fluorescence-based deoxyribonucleoside triphosphate assay in SUM-159PT cells; assay type: cell-based; conditions: for dCTP and dTTP (pyrimidine nucleoside triphosphate) levels, fluorescence-based assay: 0.5 μM doxorubicin or 12.5 μM cisplatin, 10 hours
Method: (§1) Deoxyribonucleoside triphosphate assay: Cells were maintained in full growth medium, and fresh medium was added at the time cells were treated with doxorubicin. In some cases, SUM-159PT cells were switched to Ham's F12 medium lacking glutamine. For metabolite extraction, medium was aspirated and ice-cold 60% (v/v) methanol was added. The insoluble material in lysates was pelleted by centrifugation at 10,000 g for 10 min. The resulting metabolite-containing supernatants were evaporated using a refridgerated SpeedVac. Samples were re-suspended in water and deoxyribonucleside triphosphate levels were measured as previously described (12).

SUM-159PT cells [2] = assay: Propidium iodide viability assay in SUM-159PT cells; assay type: cell-based; conditions: for single-agent activity (percentage of dead cells) / sensitization of SUM-159PT cells to doxorubicin (percentage of dead cells): 80 μM PALA; for single-agent activity (percentage of dead cells): 0.3 μM brequinar or 20 μM A771726, without doxorubicin; for sensitization of SUM-159PT cells to doxorubicin (percentage of dead cells): 0.3 μM brequinar or 20 μM A771726 pre-treatment 12 hours
Method: Propidium iodide viability assay: Cell viability was assayed with a prodium iodide-based plate reader assay, as previously described (25). Briefly, cells in 96-well plates were treated with a final concentration of 30 μM propidium iodide for 60 minutes at 37° C. The initial fluorescence intensity was measured before digitonin was added to each well at a final concentration of 600 μM. After incubating for 30 minutes at 37° C., the final fluorescence intensity was measured. The fraction of dead cells was calculated by dividing the background-corrected initial fluorescence intensity by the final fluorescence intensity.

[3] = tested on: CAD, ERK and S6K1 phosphorylation in SUM-159PT cells; assay: Immunoblotting of CAD, ERK and S6K1 phosphorylation in SUM-159PT cells; assay type: cell-based
Method: (§2) Immunoblotting: Cells were washed with ice-cold PBS and lysed in radioimmunoprecipitation buffer (RIPA; 1% NP-40, 0.5% sodium deoxycholate, 0.1% SDS, 150 mmol/L NaCl, 50 mmol/L Tris-HCl, pH 7.5, protease inhibitor cocktail, 50 nmol/L calyculin A, 1 mmol/L sodium pyrophosphate, and 20 mmol/L sodium fluoride). Cell extracts were cleared by centrifugation and protein concentration was measured with the Bio-Rad DC protein assay. Lysates were then resolved on acrylamide gels by SDS-PAGE and transferred electrophoretically to nitrocellulose membrane (Bio-Rad). Blots were blocked in Tris-buffered saline (TBST) buffer (10 mmol/L Tris-HCl, pH 8, 150 mmol/L NaCl and 0.2% Tween 20) containing 5% (w/v) nonfat dry milk and then incubated with primary antibody overnight. Membranes were incubated with HRP-conjugated secondary antibody and developed using enhanced chemiluminescence substrate (EMD Millipore).

[4] = tested on: ovarian cancer cells (OVCAR3, OVCAR8); assay: Viability by propidium iodide uptake in ovarian cancer cells; assay type: cell-based, human; conditions: brequinar pre-treatment 16 h, then doxorubicin 48 hours
Method: Since ovarian cancers display an increase in pyrimidine nucleotides following chemotherapy, we investigated the ability of pyrimidine synthesis inhibitors to sensitize these cells to chemotherapy. Cells were treated with varying doses of doxorubicin in combination with the DHODH inhibitor brequinar for 48 hours, and viability measured by propidium iodide uptake. As observed in breast cancer cells, brequinar also sensitized ovarian cancer cells to doxorubicin (FIGS. 8A-B).

[5] = tested on: human ovarian cancer cell lines (Karumochi, Ovcar3, Ovcar8, Skov3); assay: LC-MS/MS metabolite profiling of ovarian cancer cell lines; assay type: cell-based; conditions: 2.5 μM cisplatin or 0.5 μM doxorubicin, 24 hours
Method: We treated four different human ovarian cancer cell lines with 2.5 μM cisplatin or 0.5 μM doxorubicin for 24 hours and harvested polar metabolites. The samples were profiled using LC-MS/MS for 303 endogenous metabolites. As in breast cancer cells, we observed increases in pyrimidine metabolites (FIGS. 7A-D).

[6] = tested on: de novo pyrimidine synthesis pathway in SUM-159PT cells; assay: Isotope labeling with L-glutamine (amide-15N), flux through de novo pyrimidine synthesis; assay type: cell-based; conditions: 0.5 μM doxorubicin, 4 hours, then 1 hour labeling
Method: Isotope labeling: Ham's F12 medium lacking glutamine (Sigma-Aldrich) was supplemented with 100 μM L-glutamine (amide-^15N). SUM-159PT cells were treated with doxorubicin for 4 hours, at which point medium containing doxorubicin was aspirated and labeled medium was added to the cells. After 1 hour of labeling, cellular metabolites were extracted as described above and quantified using SRM on a 5500 QTRAP mass spectrometer using a protocol to detect ^15N-labelled isotopologues of metabolites in the de novo pyrimidine synthesis pathway.

[7] = tested on: MDA-MB-231 tumor xenografts; assay: MDA-MB-231 xenograft combination therapy study (tumor volume); assay type: in vivo, nude mice; conditions: for growth of MDA-MB-231 tumor xenografts (tumor volume): leflunomide 7.5 mg/kg i.p., doxorubicin 1 mg/kg i.p., 28 days
Method: Xenograft studies: Female nude mice (6 weeks old) were purchased from Taconic and maintained and treated under specific pathogen-free conditions. All procedures were approved by the Institutional Animal Care and Use Committee at Beth Israel Deaconess Medical Center (BIDMC) and conform to the federal guidelines for the care and maintenance of laboratory animals. The mice were injected subcutaneously with 4×10^6 MDA-MB-231 cells in medium containing 50% growth-factor-reduced, phenol red-free Matrigel (Corning). Tumor formation was examined every two to three days for the duration of the experiment. […] Tumors were collected and flash-frozen 24 hours after animals were exposed to vehicle or doxorubicin. […] Leflunomide (7.5 mg/kg) was administered on days 1-7, 10, 14, 17, 21 and 24 by i.p. injection. Doxorubicin (1 mg/kg) was administered on days 1, 7, 14 and 21 by i.p. injection. Mice were weighed on days 1, 7, 14, 21 and 28. Tumor volume was calculated using the following equation: Tumor volume=(π/6)(W^2)(L), where W represents width, and L represents length.

SUM-159PT cells [8] = assay: LC-MS/MS metabolomics profiling of SUM-159PT cells; assay type: cell-based; conditions: 0.5 μM doxorubicin, 10 hours, versus vehicle
Method: (§3) LC-MS/MS metabolomics profiling: For in vitro studies, SUM-159PT cells were maintained in full growth medium, and fresh medium was added at the time cells were treated with doxorubicin. For metabolite extraction, medium from biological triplicates was aspirated and ice-cold 80% (v/v) methanol was added. Cells and the metabolite-containing supernatants were collected and the insoluble material in lysates was pelleted by centrifugation at 10,000 g for 10 min. The resulting supernatant was evaporated using a refridgerated SpeedVac. For in vivo studies, ice-cold 80% (v/v) methanol was added to flash-frozen tumor tissue. Tissue was homogenized using a TissueLyser (Qiagen). The insoluble material was pelleted by centrifugation at 10,000 g for 10 min. The resulting supernatant was evaporated using a refridgerated SpeedVac. Samples were re-suspended using 20 μl HPLC-grade water for mass spectrometry. Ten microlitres was injected and analysed using a 5500 QTRAP hybrid triple quadrupole mass spectrometer (AB/SCIEX) coupled to a Prominence UFLC HPLC system (Shimadzu) with selected reaction monitoring (SRM). Peak areas from the total ion current for each metabolite SRM transition were integrated using MultiQuant v2.0 software (AB/SCIEX). Data analysis was performed using MetaboAnalyst.

[9] = tested on: MDA-MB-231 xenograft tumors; assay: LC-MS/MS metabolomics profiling of MDA-MB-231 xenograft tumors; assay type: in vivo, nude mice; conditions: 1 mg/kg doxorubicin, 24 hours, versus vehicle-treated tumors
Method: as §3

[10] = tested on: TNBC cell lines (HCC1143, MDA-MB-468, CAL51 and MDA-MB-231); assay: Fluorescence-based deoxyribonucleoside triphosphate assay in additional TNBC cell lines; conditions: 0.5 μM doxorubicin, 10 hours; HCC1143, MDA-MB-468, CAL51, MDA-MB-231
Method: as §1

[11] = tested on: CAD phosphorylation in TNBC cell lines (HCC1143, MDA-MB-468, CAL-51 and MDA-MB-231); assay: Immunoblotting of CAD phosphorylation in additional TNBC cell lines; assay type: cell-based; conditions: 0.5 μM doxorubicin, 4 hours; HCC1143, MDA-MB-468, CAL51, MDA-MB-231
Method: as §2

[12] = tested on: p-H2A.X (Ser139) in SUM-159PT cells; assay: H2A.X phosphorylation (DNA damage) by immunoblotting and immunofluorescence; assay type: cell-based; conditions: 0.5 μM doxorubicin, 10 hours
Method: as §2
Immunofluorescence: Cells plated on coverslips were fixed with 2% paraformaldehyde for 10 minutes, permeabilized with 0.5% Triton X-100, and blocked with 1% BSA in 20 mmol/L Tris-HCl, pH 7.5, for 20 minutes. Coverslips were then incubated with Alexa Fluor® 647—conjugated anti-phospho H2A.X 5139 antibody (1:100) for 3 hours. […] Images of cells were acquired using a fluorescence microscope (Nikon Eclipse Ti) and digital image analysis software (NIS-Elements, Nikon).

SUM-159PT cells [13] = assay: Mitochondrial respiration (oxygen consumption rate, Seahorse analyzer); assay type: cell-based
Method: Mitochondrial respiration: Mitochondrial respiration was assessed using the Seahorse XFe-96 Analyzer (Seahorse Bioscience). SUM-159PT cells (50,000 cells per well) were treated with vehicle control, 0.5 μM Doxorubicin, 20 μM A771726, or the combination (A771726 & Doxorubicin) for 4 hours in normal media conditions. Following this incubation, media was changed to a non-buffered, serum-free Seahorse Media (Seahorse Bioscience, Catalog #102353) supplemented with 5 mM glucose, 2 mM L-glutamine, and 1 mM sodium pyruvate, and the oxygen consumption rate (OCR) was measured. In addition, OCR was measured for 30 minutes upon drug treatment and cells were subsequently challenged with either 1 μM Oligomycin or 0.5 μM Antimycin A to assess their effect on mitochondrial respiration. All experiments were normalized to cell number.

[14] = clinical use; cited from earlier work
tumor xenograft models = conditions: single agent, references 22, 23; cited from earlier work
[15] = 40 μM PALA, 0.5 μM doxorubicin 10 hours

O=C(O)C[C@H](NC(=O)CP(=O)(O)O)C(=O)O [PALA, N-(phosphonacetyl)-L-aspartate]
effect on doxorubicin-induced alterations in dTTP levels (SUM-159PT cells [1]; [15]): did not inhibit
effect on increase in dCTP levels induced by doxorubicin (SUM-159PT cells [1]; [15]): effectively abrogated
single-agent activity (percentage of dead cells) (SUM-159PT cells [2]): minimal single-agent activity
sensitization of SUM-159PT cells to doxorubicin (percentage of dead cells) (SUM-159PT cells [2]; then doxorubicin 48 hours): dramatically sensitized

N#CC(=C(/N)Sc1ccccc1N)/C(C#N)=C(\N)Sc1ccccc1N [U0126]
effect on increase in pyrimidine nucleotides following doxorubicin exposure (SUM-159PT cells [1]; 5 μM U0126, 0.5 μM doxorubicin 10 hours): effectively suppressed
effect on doxorubicin-induced CAD Thr456 phosphorylation ([3]; 5 μM U0126 pre-treatment 12 hours, then 0.5 μM doxorubicin 4 hours): blocked

Cc1c(-c2ccc(-c3ccccc3F)cc2)nc2ccc(F)cc2c1C(=O)O [brequinar]
sensitization of ovarian cancer cells to doxorubicin (viability) [4]: sensitized
single-agent activity (percentage of dead cells) (SUM-159PT cells [2]): minimal single-agent activity
sensitization of SUM-159PT cells to doxorubicin (percentage of dead cells) (SUM-159PT cells [2]; then doxorubicin 48 hours): dramatically sensitized

N.N.[Cl][Pt][Cl] [cisplatin]
dCTP and dTTP (pyrimidine nucleoside triphosphate) levels, fluorescence-based assay (SUM-159PT cells [1]): Elevated levels
pyrimidine metabolite abundance, LC-MS/MS [5]: increases

COc1cccc2c1C(=O)c1c(O)c3c(c(O)c1C2=O)C[C@@](O)(C(=O)CO)C[C@@H]3O[C@H]1C[C@H](N)[C@H](O)[C@H](C)O1 [doxorubicin]
dCTP and dTTP (pyrimidine nucleoside triphosphate) levels, fluorescence-based assay (SUM-159PT cells [1]): robustly increased
cell viability (percentage of dead cells) (SUM-159PT cells [2]; 0.5 μM doxorubicin alone, 48 hours, SUM-159PT): negligible effects on cell viability
pyrimidine metabolite abundance, LC-MS/MS [5]: increases
incorporation of 15N-glutamine label into N-carbamoyl-aspartate [6]: significant increase
ERK1/2 phosphorylation ([3]; 0.5 μM doxorubicin): increase
phosphorylation state of CAD at the S6K1 site (Ser1859) ([3]; 0.5 μM doxorubicin): no measurable changes
phosphorylation state of S6K1 ([3]; 0.5 μM doxorubicin): no measurable changes
phosphorylation of CAD at the ERK site (Thr456) ([3]; 0.5 μM doxorubicin, within two hours): striking increase
growth of MDA-MB-231 tumor xenografts (tumor volume) [7]: cytostatic
abundance of purine nucleotide species, LC-MS/MS (SUM-159PT cells [8]): elevated
abundance of pyrimidine nucleotide species, LC-MS/MS (SUM-159PT cells [8]): increased the abundance of the majority of pyrimidine nucleotide species
increase in deoxycytidine triphosphate (dCTP) level, LC-MS/MS (SUM-159PT cells [8]): greater than 2 fold
increase in deoxythymidine triphosphate (dTTP) level, LC-MS/MS (SUM-159PT cells [8]): greater than 2 fold
abundance of pyrimidine nucleotide species in tumors, LC-MS/MS [9]: significant increase
abundance of dCTP and dTTP [10]: increased the abundance
CAD Ser1859 phosphorylation [11]: No changes
CAD Thr456 phosphorylation [11]: stimulated
DNA damage (histone H2A.X phosphorylation) [12]: effectively induced DNA damage
oxygen consumption rate (OCR) (SUM-159PT cells [13]; 0.5 μM doxorubicin or 20 μM A771726, 4 hours, 50,000 SUM-159PT cells): negligible effect
sensitivity of OCR to oligomycin and antimycin (SUM-159PT cells [13]; 0.5 μM doxorubicin, 1 μM oligomycin, 0.5 μM Antimycin A): did not affect sensitivity

Cc1oncc1C(=O)Nc1ccc(C(F)(F)F)cc1 [leflunomide]
tolerability in humans [14]: well tolerated
anti-tumor activity in tumor xenograft models (tumor xenograft models): anti-tumor activity
growth of MDA-MB-231 tumor xenografts (tumor volume) [7]: did not significantly affect
sensitization of MDA-MB-231 xenograft tumors to doxorubicin ([7]; leflunomide with doxorubicin 1 mg/kg): drastically sensitizes

O=c1ccn([C@@H]2O[C@H](CO)[C@@H](O)[C@H]2O)c(=O)[nH]1 [uridine]
rescue: effect on efficacy of the A771726 plus doxorubicin combination treatment (percentage of dead cells) (SUM-159PT cells [2]; 100 μM uridine with 20 μM A771726 pre-treatment 12 hours, then doxorubicin 48 hours): completely blocked
